Measured values taken from patent publication US12076357B2, “Preparations containing berry extracts for use in the prophylaxis and/or treatment of viral infections caused by Paramyxoviridae” (Evonik Operations GmbH, priority 2019, dated 2024).

Test system: GFP-encoding measles virus
Experiment: Measles virus replication, infected cells counted with PerkinElmer Ensight system (Part II)
Details: 75 μg/mL, quadruplets
Procedure: Vero-Slam cells were incubated with decreasing concentration of the solubilized test compounds. All concentrations were analyzed on three independent six-well plates or by independent six replicates on a black 96well plate (PerkinElmer). Cells were infected with GFP-encoding wild-type measles virus and incubated for two days. […] Part II: Two days after infection measles virus-infected cells and GFP expressing cells were directly counted using the PerkinElmer Ensight system with optical cell culture plates. The instrument was controlled by manual counting. Viral titers were calculated as infectious particles per mL.
However, in contrast to the previous experiments, infected cells were counted with the PerkinElmer Ensight system, since this system allows to quantify changes in viral titers on single cell level.
However, only non-toxic compound concentrations were applied.
The cells were subsequently infected with GFP-encoding measles virus, and GFP expressing cells were quantified with the Perkin Elmer Ensight reader. All infections were performed in triplicate assays.

With `C[C@@H]1O[C@@H](OC[C@H]2O[C@@H](Oc3cc4c(O)cc(O)cc4[o+]c3-c3cc(O)c(O)c(O)c3)[C@H](O)[C@@H](O)[C@@H]2O)[C@H](O)[C@H](O)[C@H]1O` [D3R, delphinidin 3-rutinoside] the “number of infected cells” value was “reduced the number of infected cells”.
